The text below walks through data of PubChem BioAssay (NCI).

The structures appear in SMILES notation. Several values for one entry are separate records, joined by “and”; a condition that tells them apart may be missing. Equal entries are not always repeated.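 Briefly, cells in 96-well plates were exposed to five compound concentrations for 48 h, and endpoints were estimated by linear interpolation. Abbreviation: GI50, concentration required for 50% inhibition of growth. TGI is the concentration that stops growth completely.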 Where a SMILES comes first, the peptide text is derived from it. [ ]: non-standard residue; d: D form. The star is where a group is joined. Bn2Val = CC(C)[C@@H](C(=O)*)N(Cc1ccccc1)Cc1ccccc1; NH(3,4-diMeO-benzyl) = COc1ccc(CN*)cc1OC; NMeV = CN[C@H](C(=O)O)C(C)C; dNMeA = CN[C@H](C)C(=O)O

Some test systems named below: KM20L2 colon; SK-MEL-2 melanoma; DMS 114 small cell lung; SNB-78 CNS; K-562 leukemia; XF 498 CNS; T-47D breast; MDA-MB-435; NCI/ADR-RES ovarian; DLD-1 colon.
Common to all, as to assay: NCI tumour cell line growth inhibition, 48 h

In the case of `OCc1c(-c2cccc3ccccc23)sc(-c2cccc3ccccc23)c1CO`, the TGI was found to be 24.6 µM with KM20L2 colon; 28.2 µM in the assay on SK-MEL-2 melanoma; 22.8 µM in the assay with DMS 114 small cell lung; 31.5 µM in the assay with SNB-78 CNS; 31.3 µM in the assay with K-562 leukemia; 19.3 µM in the assay with XF 498 CNS.
Consider `O=C(O)Cc1c[nH]c2ccc(F)cc12`, for which the TGI in the assay with SK-MEL-2 melanoma, in the assay on K-562 leukemia, in the assay on T-47D breast, in the assay on MDA-MB-435 and in the assay with NCI/ADR-RES ovarian was > 100 µM throughout.
With `NS(=O)(=O)c1ccc(-n2nc(-c3ccc(Br)cc3)ccc2=O)cc1`, the GI50 was > 10 µM in the assay with SK-MEL-2 melanoma; 4.85 µM with K-562 leukemia; > 10 µM in the assay on T-47D breast; 3.72 µM in the assay with MDA-MB-435; > 10 µM in the assay with NCI/ADR-RES ovarian. For the same compound, the TGI with SK-MEL-2 melanoma, in the assay with K-562 leukemia, with T-47D breast, in the assay with MDA-MB-435 and in the assay with NCI/ADR-RES ovarian was > 10 µM throughout.
For the compound `COC(=O)C(CC(=O)c1cc2c(cc1I)OCO2)Cc1cc(OC)c(OC)c(OC)c1I` (stereo unspecified), the TGI in the assay with KM20L2 colon, in the assay with DLD-1 colon, in the assay with SK-MEL-2 melanoma, in the assay with DMS 114 small cell lung, with K-562 leukemia and with XF 498 CNS was > 100 µM each time.
With `O=C1c2ccccc2C(=O)c2c1ccc1[nH]c(CCl)nc21`, the GI50 in the assay with SK-MEL-2 melanoma was 3.26 µM; in the assay with K-562 leukemia, 2.98 µM; in the assay on T-47D breast, 1.96 µM; with MDA-MB-435 it was 3.37 µM; with NCI/ADR-RES ovarian, 2.76 µM. Further, the TGI turned out to be 12.2 µM in the assay on SK-MEL-2 melanoma; 17 µM in the assay with K-562 leukemia; 4.37 µM in the assay with T-47D breast; 11.8 µM with MDA-MB-435; 10.4 µM in the assay with NCI/ADR-RES ovarian.
For `Cc1c(N2C(=O)/C(=C\c3ccccc3O)N=C2c2ccccc2)c(=O)n(-c2ccccc2)n1C`, the GI50 in the assay with SK-MEL-2 melanoma is > 100 µM; in the assay on K-562 leukemia it was > 100 µM; in the assay on T-47D breast it was 16.3 µM; in the assay on MDA-MB-435 it was 54 µM; with NCI/ADR-RES ovarian, 76.3 µM. In addition, the TGI with SK-MEL-2 melanoma, with K-562 leukemia, with T-47D breast, with MDA-MB-435 and with NCI/ADR-RES ovarian was > 100 µM each time.
In the case of `CC1=C2[C@@H](CC1)[C@]1(C)O[C@@](C(C)C)(C[C@H]1OC(=O)[C@H](C)O)[C@H]2OC(=O)/C=C/c1ccccc1`, the GI50 in the assay with SK-MEL-2 melanoma is 16.1 µM; in the assay on K-562 leukemia it was 12.5 µM; in the assay on T-47D breast, 5.38 µM; in the assay on MDA-MB-435, 15.5 µM; in the assay with NCI/ADR-RES ovarian it was 0.428 µM. For the same compound, the TGI came out at 33 µM with SK-MEL-2 melanoma; 49.8 µM in the assay on K-562 leukemia; 22.4 µM in the assay on T-47D breast; 30.9 µM in the assay with MDA-MB-435; 16 µM in the assay on NCI/ADR-RES ovarian.
For the compound `COc1ccc(CNC(=O)[C@@H](C)N(C)C(=O)[C@@H]2CCCN2C(=O)[C@H](C(C)C)N(C)C(=O)[C@@H](NC(=O)[C@H](C(C)C)N(Cc2ccccc2)Cc2ccccc2)C(C)C)cc1OC` (Bn2Val-V[NMeV]P[dNMeA]-{NH(3,4-diMeO-benzyl)}), the GI50 in the assay on SK-MEL-2 melanoma is 4.38 µM; in the assay with K-562 leukemia, 6.52 µM; with MDA-MB-435, 11.1 µM; in the assay on NCI/ADR-RES ovarian, 6.35 µM. The TGI with SK-MEL-2 melanoma is 15.1 µM and 15 µM; in the assay with K-562 leukemia, 50 µM and > 100 µM; in the assay with T-47D breast, 50 µM and 81.1 µM; in the assay on MDA-MB-435, 19.7 µM and 24.1 µM; with NCI/ADR-RES ovarian, 32.9 µM and 40.1 µM.
`O=C1CC[C@H]2CNC(=O)C[C@H]2C1`: the TGI with DLD-1 colon, with SK-MEL-2 melanoma, with SNB-78 CNS, with K-562 leukemia and with XF 498 CNS was > 100 µM each time.
Regarding `O=c1[nH]c(=O)n(C2CC(O)C(CO)O2)cc1C#Cc1c(F)c(F)c(F)c(F)c1F` (stereo unspecified), the TGI in the assay with KM20L2 colon, with DLD-1 colon, with SK-MEL-2 melanoma, in the assay with DMS 114 small cell lung and in the assay on K-562 leukemia was > 100 µM in each case.
Take `COc1cccc(-c2nn(-c3ccccc3)cc2-c2ccnc(NCCCNS(=O)(=O)c3cccc(F)c3)c2)c1`: the GI50 in the assay with SK-MEL-2 melanoma is 2.59 µM; in the assay on K-562 leukemia, 3.31 µM; in the assay with T-47D breast, 1.54 µM; with MDA-MB-435 it was 3.68 µM; with NCI/ADR-RES ovarian it was 3.05 µM. The TGI is 8.32 µM in the assay on SK-MEL-2 melanoma; > 100 µM with K-562 leukemia; 5.27 µM with T-47D breast; 58.8 µM in the assay with MDA-MB-435; > 100 µM in the assay with NCI/ADR-RES ovarian.
Consider `CCCCCCCCCCCCOC1C(CNCC2OC3OC(C)(C)OC3C2NC(=O)Nc2ccc(C(=O)OCC)cc2)OC2OC(C)(C)OC21` (stereo unspecified), for which the GI50 was 13.4 µM in the assay with SK-MEL-2 melanoma; 2.95 µM in the assay on K-562 leukemia; 2.68 µM in the assay on T-47D breast; 1.9 µM with MDA-MB-435; 2.19 µM with NCI/ADR-RES ovarian. Further, the TGI with SK-MEL-2 melanoma is 29.7 µM; in the assay with K-562 leukemia, > 100 µM; in the assay with T-47D breast it was 7.1 µM; in the assay on MDA-MB-435 it was 3.8 µM; in the assay with NCI/ADR-RES ovarian it was 4.35 µM.
As for `C[C@@H]1Cc2c([nH]c3ccccc23)[C@@H](c2c(F)cc(/C=C/C(=O)O)cc2F)N1CC(C)(C)F`, the GI50 in the assay on SK-MEL-2 melanoma was 13.8 µM; in the assay with K-562 leukemia, 13.6 µM; in the assay with T-47D breast it was 0.0916 µM; with MDA-MB-435, 14 µM; with NCI/ADR-RES ovarian, 14.7 µM. The TGI in the assay with SK-MEL-2 melanoma was determined as 32.8 µM; with K-562 leukemia, 46.1 µM; in the assay with T-47D breast, 51.3 µM; in the assay on MDA-MB-435, 31 µM; with NCI/ADR-RES ovarian, 36.5 µM.
With `COc1ccccc1NC(=O)c1ccc(/C=C/C(=O)c2nccn2C)cc1`, the GI50 in the assay with SK-MEL-2 melanoma was 1.9 µM; in the assay with K-562 leukemia it was 0.588 µM; with T-47D breast it was 0.711 µM; with MDA-MB-435 it was 0.548 µM; with NCI/ADR-RES ovarian, 0.806 µM. The TGI with SK-MEL-2 melanoma was 10.8 µM; with K-562 leukemia, 11.6 µM; in the assay on T-47D breast it was 2.58 µM; with MDA-MB-435 it was 1.3 µM; with NCI/ADR-RES ovarian it was 9.77 µM.
